Reference: patent US12509407B2, “Biostimulant agent for treating plants and/or plant seed” (UNIFERX INTERNATIONAL GMBH, priority 2019, dated 2025)

Legend:
Type in all cases: in vivo
soybean var. Niagara = experiment: Comparative test 3: field trial, increase in leaf area of soybean under heat stress; conditions: 10 days after treatment, third to sixth leaf from the top
Method: (§1) The field trial was conducted in June 2019 on soils with brittle black earth. The humus content was 3.2-3.4% and the depth of the humus layer was 60-70 cm. Soil pH was 6.2-6.6, alkaline hydrolyzed nitrogen content was […] per kilogram, available phosphorus compounds content was […] per kilogram, and available potassium content was […] per kilogram. The average annual precipitation was 633 millimeters, whereas the precipitation in June was 87 millimeters. The average annual temperature was 7.4° C., the average temperature in June was 17.6° C., the average relative humidity was 76%, and the average relative humidity in June was 66%.
(§2) During the duration of the field trial, the treated plants were exposed to heat stress with daily temperatures exceeding 30° C. […]
(§3) All three groups of plants were treated once with the corresponding solution at the same times and with the same quantities. […]
(§4) To determine the biological effect of the different treatments, the leaf area of the plants (sum of leaf area from the third to the sixth leaf from the top in square meters per hectare of field area) was determined in each case before the start of the treatments and 10 days after the treatment. Thereby, the biological effect corresponds to the determined increase of the leaf area at the end of the study period in percent. […]

corn hybrid DKC 3511 = experiment: Comparative test 1: field trial, growth of leaf area of corn under heat stress; conditions: corn DKC 3511, heat stress >30° C., 10 days after single spray treatment, 1.15 liters protein hydrolysate and/or 0.68 kilograms glycine betaine per hectare
Method: In a first field trial, the effect of the biostimulant agent according to the invention on the Growth of the leaf area of the corn hybrid DKC 3511 under heat stress was investigated. For comparison, the corresponding effect of the individual components protein hydrolysate and betaine was tested in parallel, each in the same amounts as contained in the biostimulant agent.
The field trial was conducted in June 2019 on soils with brittle black earth. The humus content was 3.2-3.4% and the depth of the humus layer was 60-70 cm. Soil pH was 6.2-6.6, alkaline hydrolyzed nitrogen content was […] per kilogram, available phosphorus compounds content was […] per kilogram, and available potassium content was 120-130 grams per kilogram. […]
as §3
To determine the biological effect of the different treatments, the leaf area of the plants (sum of leaf area from the third to the sixth leaf from the top in square meters per hectare of field area) was determined in each case before the start of the treatments and 10 days after the treatment. Thereby, the biological effect corresponds to the determined increase of the leaf area at the end of the study period in percent.

[1] = test system: sunflower hybrid SI Diamantis; experiment: Comparative test 2: field trial, growth of leaf area of sunflowers under heat stress; conditions: heat stress >30° C., 10 days after treatment
Method: as §1, §2, §3, §4

## C[N+](C)(C)CC(=O)O [betaine, glycine betaine]
Soybean var. Niagara
  increase in leaf area (biological effect): no increase in leaf area was observed at all
Corn hybrid DKC 3511
  increase in leaf area (biological effect): 0.2%
[1]
  increase in leaf area (biological effect): no increase in leaf area was observed at all
